In US12319694B2, “Heterocyclic nitrogen-containing purine derivatives, pharmaceutical preparations containing these derivatives and their use in neuroprotection” (UNIVERZITA PALACKEHO, priority 2019, dated 2025):
Several values for one entry are separate records, joined by “and”; a condition that tells them apart may be missing. Equal entries are not always repeated.

Tests used:
Nrf2 = assay: Activation of Nrf2-dependent expression, EpRE-LUX reporter cell line; type: cell-based; conditions: 24 h; tested at 100, 10, 1 and 0.1 μM, concentration of the printed value not stated; mean ± SD (n = 3)
Method: The ability of compounds to activate Nrf2-dependent expression was determined by EpRE-LUX reporter cell line. In brief, compounds at 100, 10, 1 and 0.1 μM concentrations of the tested compounds were incubated for 24 h with the cells. After cells lysis (10 mM Tris, 2 mM DTT), a buffer containing 0.2 mM luciferin was added to start luminescent reaction. The increase in luminescence was measured with microplate reader Infinite M200 (TECAN). Compounds with Nrf2 value higher than 0 are strong Nrf2 activators and thus will be useful agents for the treatment of neurodegenerative diseases associated with oxidative stress.

[1] = test system: SH-SY5Y human neuroblastoma cell line; assay: Oxidative stress measurement (dihydroethidium, superoxide) in SH-SY5Y, salsolinol-induced model of PD; type: cell-based; conditions: 6 h; for activity at 1 µM: 1 μM compound with SAL 500 μM; for activity at 1 µM / activity at 10 µM: read-out: Oxidative stress (% of control); for reduction of oxidative stress induced by Salsolinol (in words): SAL 500 μM, compounds 1 and 10 μM
Method: The assay was performed in 96-well microplate with 7000 cells/well. Next day, SH-SY5Y underwent differentiation protocol for 48 h see above. Treatment procedure remained the same as in previous section (Cell treatment and viability/cytotoxicity assays). Additionally, oxidative stress (OS) inducers such as 6-hydroxydopamine (6-OHDA) and glutamate (Glu) alone were used as […]. Negative controls determined threshold of excessive OS. […] After 30 minutes, DHE was read at 500 nm/580 nm (excitation/emission). DHE is cell permeable dye which is selective toward superoxide radical detection.

[2] = Calcein AM viability test on ATRA-differentiated SH-SY5Y cells; type: cell-based, human; conditions: human, ATRA-differentiated SH-SY5Y neuroblastoma cells, DMSO control = 100%, read-out: % of viability, relative to control; for viability at 24 h, 0.1 µM: 0.1 μM compound; for viability at 24 h, 1 µM: 1 μM compound; for viability at 24 h, 10 µM: 10 μM compound
Method: (§1) The SH-SY5Y human neuroblastoma cell line obtained as kind gift from Walter d'Acunto (originally purchased from ATCC—American Type Culture Collection (Manassas, VA, USA) was cultivated in Dulbecco's modified Eagle's Medium and Ham's F12 Nutrient Mixture (DMEM:F-12, 1:1), supplemented with 10% fetal bovine serum (FBS) and 1% penicillin and streptomycin at 37° C. in a humidified atmosphere 5% CO2, 95% air in passage limit up to ATCC+15. The assay was performed in 96-well microplate with 7000 SH-SY5Y cells per well. Next day, SH-SY5Y underwent all-trans retinoic acid (ATRA)-differentiation for 48 h (ATRA 10 μM). After 48 h, old DMEM/F12 media was removed by fresh media containing tested compounds at 0.1, 1 and 10 μM concentrations for 24 h. The tested compounds were dissolved in DMSO were added into the medium. The maximum concentration of DMSO in media was kept below 0.1% (v/v). The cell viability was measured by Calcein AM (1 mg/ml ThermoFisher) viability assay. Solution of Calcein AM in PBS (0.5 uM) was pipetted to cells and incubated for 50 minutes. After that the fluorescence was measured at 488/517 nm (excitation/emission) using microplate reader Infinite M200 (TECAN). Calcein AM assay is based on the dye-intracellular-esterase cleavage of non-fluorescent dye (Calcein AM) by living cells to fluorescent dye (Calcein), while dyeing cells that lose such ability. The values in Table 4 show % of viability, relative to control of all tested compounds. The control (medium with DMSO, <0.1% (v/v)) was postulated as 100% viability (see the first line of the table).

[3] = test system: SH-SY5Y human neuroblastoma cell line (differentiated phenotype); assay: Viability test, salsolinol-induced model of Parkinson's disease in differentiated SH-SY5Y (Calcein AM); type: cell-based; conditions: 24 h
Method: as §1
Similarly, to the previous test the assay was performed in 96-well microplates with 7000 SH-SY5Y cells per well. Day after the seeding of cells, SH-SY5Y underwent all-trans retinoic acid (ATRA)-differentiation for 48 h (ATRA 10 μM). After 48 h, old DMEM/F12 media was removed by fresh media containing 500 μM dopaminergic neurotoxin Salsolinol (SAL) without or with tested compounds at 0.1, 1 and 10 μM concentrations. […] After 24 h the cell viability was measured by Calcein AM viability assay.

[4] = Radical scavenging activity by ORAC assay; conditions: NAUC relative to trolox; mean ± SD (n = 3)
Method: The ability of compounds to scavenge free radicals in vitro was determined by Oxygen Radical Absorbance Capacity (ORAC) method. In brief, fluorescein (100 μL, […]) and 25 μL of tested compound solution were added into each working well in a 96-well microplate preincubated at 37° C. Thereafter, 25 μL of 250 mM 2,2′-azobis(2-amidino-propan)dihydrochloride (AAPH) was quickly added, microplate was shaken for 5 s and the fluorescence (Ex. 485 nm, Em. 510 nm) was read every 3 min over 90 min by using microplate reader Infinite 200 (TECAN, Switzerland). The NAUC value (Net Area Under Curve) was used to express antioxidant activity relative to trolox (hydrophilic equivalent of vitamin E postulated as a standard). Substances with an ORAC value greater than 0 actively trap free radicals.

[5] = Homo sapiens, SH-SY5Y, 10 μM compound with SAL 500 μM
[6] = 0.1 μM compound with 500 μM Salsolinol
[7] = 1 μM compound with 500 μM Salsolinol
[8] = 10 μM compound with 500 μM Salsolinol

SMILES	Nrf2 (relative luminiscence) (Nrf2)	activity at 1 µM ([1]; Homo sapiens, SH-SY5Y) [%]	activity at 10 µM [1, 5] [%]	viability at 24 h, 0.1 µM [2] [%]	viability at 24 h, 1 µM [2] [%]	viability at 24 h, 10 µM [2] [%]	Neuroprotective effect (% of control) [3, 6]	Neuroprotective effect (% of control) [3, 7]	Neuroprotective effect (% of control) [3, 8]	Oxidative stress (% of control) ([1]; Salsolinol 500 μM alone, DMSO control = 100%)	decrease in percentages of alive cells ([3]; 500 μM Salsolinol alone) [%]	ORAC (compound/trolox) [4] [compound/trolox]	reduction of oxidative stress induced by Salsolinol (in words) [1]	Oxidative stress (% of control) ([1]; Glu 160 mM alone (negative control))	activity at 30 µM ([1]; Homo sapiens, SH-SY5Y, 6-OHDA 30 μM alone (negative control)) [%]	Oxidative stress (% of control) ([1]; 10 μM compound with SAL 500 μM)
Clc1cccc(Cl)c1Cn1cnc2c(N3CCCC3)nc(N3CCCC3)nc21 [Compound 74, 9-(2,6-Dichlorobenzyl)-2,6-di(pyrrolidine-1-yl)-9H-purine]	0.38 ± 0.08	126	179	111	138	152	8.57 % of control	20.24 % of control	22.35 % of control	–	–	–	–	–	–	–
C[C@@H]1NCCc2cc(O)c(O)cc21 [Salsolinol, reference compound]	–	–	–	–	–	–	–	–	–	335.4 % of control and 335.36 % of control	30.7	–	–	–	–	–
COc1cc2c(cc1OC)C(=O)C(CC1CCN(Cc3ccccc3)CC1)C2 (stereo not shown) [Donepezil, reference compound]	–	–	–	–	–	–	2.76 % of control	6.73 % of control	14.25 % of control	–	–	–	–	–	–	–
Nc1nc(NCCc2ccc(O)cc2)nc2nc(-c3ccco3)nn12 [ZM241385, reference compound]	–	–	102	–	–	–	1.95 % of control	7.03 % of control	9.31 % of control	–	–	–	–	–	–	–
c1ccc(Cn2cnc3c(N4CCOCC4)nc(N4CCOCC4)nc32)cc1 [Compound 4, 2,6-dimorpholino-9-benzylpurine]	0.19 ± 0.02	106	155	106	113	146	1.70 % of control	8.11 % of control	21.12 % of control	–	–	0.007 ± 0.002	–	–	–	–
Oc1ccc(Cn2cnc3c(N4CCCC4)nc(N4CCCC4)nc32)cc1 [Compound 30, 9-(4-hydroxybenzyl)-2,6-di(pyrrolidin-1-yl)-9H-purine]	0.29 ± 0.11	95.9	97.4	99.5	111	123	10.62 % of control	–	26.41 % of control	–	–	0.422 ± 0.034	highest potency toward the reduction of oxidative stress	–	–	–
N[C@@H](CCC(=O)O)C(=O)O [Glu, glutamate, reference compound]	–	–	–	–	–	–	–	–	–	–	–	–	–	268.62 % of control	–	–
NCCc1cc(O)c(O)cc1O [Compound 6-OHDA, 6-hydroxydopamine, reference compound]	–	–	–	–	–	–	–	–	–	–	–	–	–	–	215	–
c1ccc(Cn2cnc3c(N4CCCC4)nc(N4CCCCC4)nc32)cc1 [Compound 77, 9-Benzyl-2-(piperidin-1-yl)-6-(pyrrolidin-1-yl)-9H-purine]	0.16 ± 0.04	118	127	107	118	117	4.64 % of control	12.11 % of control	13.8 % of control	–	–	0.028 ± 0.001	–	–	–	–
CC(=O)N(O)CCCCCNC(=O)CCC(=O)N(O)CCCCCNC(=O)CCC(=O)N(O)CCCCCN [Deferoxamine, reference compound]	–	–	101	–	–	–	1.43 % of control	4.86 % of control	10.52 % of control	–	–	–	–	–	–	–
c1ccc(Cn2cnc3c(N4CCCCC4)nc(N4CCCC4)nc32)cc1 [Compound 78, 9-Benzyl-6-(piperidin-1-yl)-2-(pyrrolidin-1-yl)-9H-purine]	0.23 ± 0.03	136	238	106	120	134	N/A (N/A = no protection)	17.95 % of control	N/A (N/A = no protection)	–	–	0.071 ± 0.005	–	–	–	OS level reaching threshold of negative controls
c1ccc(Cn2cnc3c(N4CCSCC4)nc(N4CCSCC4)nc32)cc1 [Compound 5, 9-benzyl-2,6-dithiomorpholino-9H-purine]	0.17 ± 0.06	121	135	106	126	129	7.03 % of control	–	19.89 % of control	–	–	0.016 ± 0.001	highest potency toward the reduction of oxidative stress	–	–	–
Oc1cccc(Cn2cnc3c(N4CCCC4)nc(N4CCCC4)nc32)c1 [Compound 26, 9-(3-Hydroxybenzyl)-2,6-di(pyrrolidin-1-yl)-9H-purine]	0.33 ± 0.06	107	142	108	120	142	4.90 % of control	14.43 % of control	20.71 % of control	–	–	0.126 ± 0.018	–	–	–	–
